The test system of this test is brown cutaneous surface lipid of the rats. The experiment in a line: Testing for anti-seborrheic activity: brown discoloration (brown cutaneous surface lipid) on shaved backs of male Wistar rats after topical application. The following applies: 9 applications in 14 days; for Evaluation Method 1 (percentage of evaluators recognizing an effect): topical on one side of back fur, 6 male Wistar rats. The class given is in vivo. From the text:
The anti-seborrheic activity of aryloxobutenoic acid derivatives was examined closely in the animal experiments described hereinafter. The experimental animals were male Wistar rats weighing from 220 to 230 gm. A degree of brown discoloration on the shaved backs of the rats was established visually; the brown discoloration was caused by the brown cutaneous surface lipid of the rats. This test is based upon the observation that young female rats as well as male rats that were washed with tenside solution and a lipid solvent, respectively, as well as male rats that were treated systematically with estrogen, show only the normal light-colored pink skin after shaving; parallel to this, only relatively very small amounts of lipid can be extracted from the shorn hair.
For evaluation of anti-seborrheic activity, the test substances set forth in the table below, each in solution in ethanol, were each brushed on one side of the back fur of six rats. The other side was treated only with the solvent without the active substance (control side). During the testing period of 14 days, application of test substance was made once a day on a total of 9 days. A group of 6 rats that remained completely untreated served as an additional control. At the end of the testing, the animals were shaved on the back and the flanks and inspected visually, this inspection being done independently by an evaluation panel (6 persons) under doubleblind conditions.
Three criteria were rated. The first criterion was whether the majority of the evaluators recognized the treated side properly. The differentiations were as follows:
The second criterion was the difference between the right and left sides, one point each to be given per evaluator and animal, in the manner that the darker side was rated 1, the lighter side was rated 0, and uniformity of both sides were rated 0.5.
Significant differences between the untreated and the treated side according to the second method of evaluation indicate the topical effectiveness of a substance.
The third criterion was the rating of the difference in intensity of the brown shades according to the following scale:
According to the third method of evaluation, the differences in the point totals between the untreated control animals and the treated and untreated sides, respectively, of the experimental animal group were calculated where significant differences between control animals and the treated side of the experimental animals indicate the effect of a substance. Similarly, a distinct difference between the untreated and the treated sides of the experimental animal groups is also generally noticeable. However, this is not always as distinct as that between control animals and treated sides, which may be due to various reasons, as, for example, mechanical transfer of substance from one side to the other or solvent influence.
The differentiation of the effects according to the methods of evaluation 2 and 3 was characterized in the following manner:
In addition, the percentage of sebum reduction was calculated by dividing the point difference (ΔP) by the number of points for the control group (Pk) and multiplying by 100%, as follows: […]

[1] abbreviates: Rattus norvegicus, 336 h, 0.5% in ethanol, topical, point difference (ΔP) / points of control group (Pk) x 100%, read-out: Sebum Reduction.
Where [2] appears, read: Rattus norvegicus, 336 h, 0.1% in ethanol, topical, point difference (ΔP) / points of control group (Pk) x 100%, read-out: Sebum Reduction.

The structures appear in SMILES notation.

Take `CCOC(=O)C=CC(=O)c1ccc(OC)c(OC)c1O` [Example 8, 4-(3',4'-Dimethoxy-2'-hydroxy-phenyl)-4-oxo-but-2-enoic acid ethyl ester]: the “Evaluation Method 1 (percentage of evaluators recognizing an effect)” value (0.5% in ethanol) is listed as “++ (100%)”. Besides, under setting [1], the inhibition in vivo at 0.5 % came out at 69%.

For `CCCCOC(=O)C=CC(=O)c1ccccc1` [Example 4, 4-Phenyl-4-oxo-but-2-enoic acid butyl ester], the “Evaluation Method 1 (percentage of evaluators recognizing an effect)” value (0.1% in ethanol) is given as “++ (100%)”. Also, the inhibition in vivo at 0.1 % under setting [2] is 66%.

As for `CCOC(=O)C=CC(=O)c1ccc(OC)c(OC)c1` [Example 5, 4-(3',4'-Dimethoxy-phenyl)-4-oxo-but-2-enoic acid ethyl ester], the “Evaluation Method 1 (percentage of evaluators recognizing an effect)” value (0.1% in ethanol) is on record as “++ (100%)”. Besides, the inhibition in vivo at 0.1 % under setting [2] came out at 65%.

Turning to `CCOC(=O)C=CC(=O)c1ccc(Cl)cc1` [Example 1, 4-(4'-Chloro-phenyl)-4-oxo-but-2-enoic acid ethyl ester], the “Evaluation Method 1 (percentage of evaluators recognizing an effect)” value (0.25% in ethanol) is listed as “++ (100%)”. The inhibition in vivo at 0.25 % (Rattus norvegicus, 336 h, 0.25% in ethanol, topical, point difference (ΔP) / points of control group (Pk) x 100%, read-out: Sebum Reduction) stood at 84%.

As to `CCOC(=O)C=CC(=O)c1ccc(NC(C)=O)cc1` [Example 9, 4-(4'-Acetylamino-phenyl)-4-oxo-but-2-enoic acid ethyl ester], for the setting “0.1% in ethanol”, the “Evaluation Method 1 (percentage of evaluators recognizing an effect)” value was “++ (100%)”. Moreover, the inhibition in vivo at 0.1 % under setting [2] is 84%.

Take `CCOC(=O)C=CC(=O)c1ccc(Cl)cc1Cl` [Example 10, 4-(2',4'-Dichloro-phenyl)-4-oxo-but-2-enoic acid ethyl ester]: the “Evaluation Method 1 (percentage of evaluators recognizing an effect)” value (0.1% in ethanol) is listed as “++ (100%)”. Further, the inhibition in vivo at 0.1 % under setting [2] was 27%.

`CC(C)OC(=O)C=CC(=O)c1ccccc1` [Example 3, 4-Phenyl-4-oxo-but-2-enoic isopropyl ester]: the “Evaluation Method 1 (percentage of evaluators recognizing an effect)” value (0.1% in ethanol) is reported as “++ (100%)”. In addition, the inhibition in vivo at 0.1 % under setting [2] came to 68%.

`CCOC(=O)C=CC(=O)c1ccccc1` [Example 2, 4-Phenyl-4-oxo-but-2-enoic ethyl ester]: the “Evaluation Method 1 (percentage of evaluators recognizing an effect)” value (0.1% in ethanol) was “++ (100%)”.

`CCCCOc1ccc(C(=O)C=CC(=O)OCC)cc1` [Example 6, 4-(4'-Butoxy-phenyl)-4-oxo-but-2-enoic acid ethyl ester]: the “Evaluation Method 1 (percentage of evaluators recognizing an effect)” value (0.5% in ethanol) is “++ (100%)”. In addition, the inhibition in vivo at 0.5 % under setting [1] was 42%.

Source of the values: patent publication US4562068A, “Sebosuppressive cosmetic preparations containing aryloxobutenoic acid derivatives” (Henkel Kommanditgesellschaft auf Aktien, priority 1982, dated 1985).
